Holding throughout (format): cell-based
The target in one assay is T1, human melanopsin (Homo sapiens, UniProt Q9UHM6).
T1 sequence (Q9UHM6 1-384 limits assumed): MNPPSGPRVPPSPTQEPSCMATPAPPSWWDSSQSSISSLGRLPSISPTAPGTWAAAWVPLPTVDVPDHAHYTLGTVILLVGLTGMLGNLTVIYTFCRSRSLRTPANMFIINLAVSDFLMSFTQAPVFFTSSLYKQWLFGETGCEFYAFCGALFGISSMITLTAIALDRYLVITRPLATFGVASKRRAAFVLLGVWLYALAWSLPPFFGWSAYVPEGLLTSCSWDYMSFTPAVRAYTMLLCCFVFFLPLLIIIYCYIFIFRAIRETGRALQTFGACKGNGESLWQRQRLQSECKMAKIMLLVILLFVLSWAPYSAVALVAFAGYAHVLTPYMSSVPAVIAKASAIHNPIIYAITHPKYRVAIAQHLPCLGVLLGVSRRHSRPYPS
Description: GloSensor cAMP assay via endogenous G proteins. The conditions noted are these: COS-1 cells, no exogenous G protein. On the set-up: the C-terminal amino acid residues (94, 140, 200, 214, 296, and 308 residues); expressed in transfected cells; host or cells: COS-1. A general note: Changes in cAMP serve as a functional read-out for many G protein-coupled receptors.

The subject of assay [1] is human melanopsin S269^6.52A mutant. As to the kind of experiment: GsX GloSensor assay with Gsα/q11. The following applies: 16.7 μM AA92593, COS-1 cells. From the text:
(§1) We substituted the residues Phe-94^2.61, Ser-188^ECL2, and Ser-269^6.52 in human melanopsin (Fig. 2, A and B) and examined the inhibitory effect of AA92593 on these mutants. Substitution of these amino acid residues with the corresponding amino acids in non-mammalian-type melanopsins (F94^2.61C, S188^ECL2T, and S269^6.52A) reduced the inhibitory effect of AA92593 compared to its effect on WT (Fig. 2, C–E). […] The antagonistic effect of AA92593 was reduced by ∼21% and ∼24% in the S188^ECL2T and S269^6.52A mutants, respectively (Fig. 2, D, E, and G). […] The volume change in side chain would affect arrangement of the amino acid residues around AA92593 (see below).
(§2) For GloSensor assay, opsins, GloSensor assay sensor (coded by pGlo-22F), and NanoBiT-tagged G proteins were transiently expressed in COS-1 cells (kindly provided from Dr David Farrens, Oregon Health and Science University) using PEI as described previously ([24], [52]). For the GsX GloSensor assay ([12], [13]), each well of a 96-well assay plate (Corning) was transfected with 50 ng opsin plasmid, 16.7 ng G protein plasmid, 50 ng pGlo-22F plasmid (Promega), and 500 ng PEI in 25 μl Opti-mem and 75 μl Dulbecco's modified Eagle's medium (D-MEM). […] For GFP-fluorescence microscopy, a 35-mm cell culture dish (IWAKI) was transfected with 2 μg melanopsin-GFP plasmid and 8 μg PEI in 400 μl Opti-mem and 1.2 ml D-MEM. […]
(§3) The transfected COS-1 cells were incubated at 37 °C, 5% CO2 for 2 days, and the medium was aspirated and exchanged with 50 μl of HBSS (145 mM NaCl, 10 mM D-glucose, 5 mM KCl, 1 mM MgCl2, 1.7 mM CaCl2, 1.5 mM NaHCO3, 10 mM Hepes, pH 7.4), containing 33.3, 20, 10, 2, 0.2, 0.02, 0.002, or 0 μM AA92593, 0.5% dimetyl sulfoxide (DMSO), and 4% (vol/vol) GloSensor cAMP reagent stock solution. […] Then, the cells were incubated at room temperature for 1 h, and luminescence changes were monitored. After incubation of the cells with AA92593, luminescence measurement was interrupted, the plate was ejected, and the cells were added with 50 μl of HBSS containing 0.2 μM 9-cis-retinal. […] Luminescence was measured using GM-2000 or GM-3510 microplate reader (Promega). Luminescence level of each well was measured every 30 s with integration time of 0.6 to 0.9 s. To illuminate opsins, luminescence measurement was interrupted, the plate was ejected, and the plate was illuminated by white light with CN-160 LED video light (light intensity, ∼9 mW/cm^2) (NEEWER). […] After illumination, luminescence measurement was resumed. The measured luminescence levels were normalized to the level at the starting point (time = 0 min). […]

Assay [2] has as its target T2, human melanopsin S188^ECL2A mutant (Homo sapiens, UniProt Q9UHM6, S222A).
T2 construct: expressed in transfected cells; host or cells: COS-1
Description: GsX GloSensor assay with Gsα/q11. The following applies: 16.7 μM AA92593, COS-1 cells.
Excerpt: as §1, §2, §3

The test system of assay [3] is human melanopsin S188^ECL2T mutant. As to the kind of experiment: GsX GloSensor assay with Gsα/q11. The conditions noted are these: 16.7 μM AA92593, COS-1 cells.
Excerpt: as §1, §2, §3

For assay [4], the target named is T3, human melanopsin F94^2.61C mutant (Homo sapiens, UniProt Q9UHM6, F127C).
T3 construct: the C-terminal amino acid residues (94, 140, 200, 214, 296, and 308 residues); expressed in transfected cells; host or cells: COS-1
T3 sequence (Q9UHM6 1-384 F127C limits assumed): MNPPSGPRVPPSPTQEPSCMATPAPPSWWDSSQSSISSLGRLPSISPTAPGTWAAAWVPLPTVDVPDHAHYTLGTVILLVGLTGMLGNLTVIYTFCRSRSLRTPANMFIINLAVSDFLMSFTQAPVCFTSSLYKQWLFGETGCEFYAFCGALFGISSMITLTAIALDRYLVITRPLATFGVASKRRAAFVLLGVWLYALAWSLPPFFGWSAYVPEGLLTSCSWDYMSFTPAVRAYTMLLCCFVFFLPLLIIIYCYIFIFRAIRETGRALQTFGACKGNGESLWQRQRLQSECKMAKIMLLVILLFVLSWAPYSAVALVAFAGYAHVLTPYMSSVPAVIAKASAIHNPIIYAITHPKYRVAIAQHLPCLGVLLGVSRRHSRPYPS
As to the kind of experiment: GsX GloSensor assay with Gsα/q11. The conditions noted are these: 16.7 μM AA92593, COS-1 cells, difference not statistically significant.
Excerpt: as §1, §2, §3

We go through one molecule from paper PMC12051620, “Molecular basis underlying the specificity of an antagonist AA92593 for mammalian melanopsins” (The Journal of Biological Chemistry, 2025).

T2 sequence (Q9UHM6 1-384 S222A limits assumed): as the sequence (Q9UHM6 1-384 F127C limits assumed) above, with C127F, S222A counted along it

As for `COc1ccc(S(=O)(=O)N2CCCCC2)cc1C` [AA92593], the “effect on endogenous G protein-induced cAMP responses” value on human melanopsin is reported as “inhibited”. Moreover, the “reduction of the antagonistic effect of AA92593 vs WT” value is recorded as approximately 24% in assay [1] and approximately 21% in assay [3]. The “change in the effect of AA92593 vs WT” value in assay [2] is reported as “did not induce a significant change”. The “inhibitory effect of AA92593 compared to WT” value in assay [4] is reported as “consistently weaker”.
